Experimental data: paper PMC8587999, “Assessment of the Activity of Decoquinate and Its Quinoline-O-Carbamate Derivatives against Toxoplasma gondii In Vitro and in Pregnant Mice Infected with T. gondii Oocysts” (Molecules, 2021)
Like-named read-outs stand apart in the source and are kept apart here.

Key:
[1] = test system: BAG1 (bradyzoite antigen 1) expression in T. gondii Me49; test: Immunofluorescence staining for BAG1 expression in TgMe49-infected HFF; format: cell-based, Toxoplasma gondii; settings: treatment for 48 h
Protocol: For immunofluorescence microscopy, 4 × 10^4 HFF were grown on glass coverslips for 24 h to form a sub-confluent monolayer and were exposed to 1.2 × 10^5 TgMe49 tachyzoites during 4 h at 37 °C and 5% CO2. The medium was replaced and supplemented with 20 nM DCQ and RMB060, or medium containing DMSO as control. Cultures infected with TgPgSp1 (low passage number) served as positive control for BAG1 (bradyzoite antigen 1) expression. Infected cells were cultured for 16 h, 24 h, and 48 h and fixed and labelled for immunofluorescence staining as described previously. A polyclonal rabbit anti-BAG1 antiserum was applied at 1:200 dilution, followed by a goat-anti-rabbit fluorescein-isothiocyanate conjugate (1:300), the monoclonal mouse anti-TgSAG1 antibody was diluted (1:100), followed by goat anti-mouse conjugated to tetramethylrhodamine-isothiocyanate at 1:300. Subsequently, samples were mounted in H-1200 Vectashield mounting medium (Vector Laboratories, Burlingame, CA, USA) containing 4,6-diamidino-2-phenylindole and were viewed on a Nikon E80i fluorescence microscope (Tokyo, Japan). Processing of images was performed using Openlab 5.5.2 (Improvision, PerkinElmer, Waltham, MA, USA) and the ImageJ software, version 1.53 m.

[2] = test system: T. gondii Me49 tachyzoites; test: Long-term drug treatment of TgMe49-infected HFF in vitro; format: cell-based, Toxoplasma gondii
Protocol: HFF cytotoxicity assessments and IC50 determinations using cultures of Tg-β-gal tachyzoites grown in HFF were carried out as described previously. IC50 values were calculated with the logit-log-transformation of the relative growth and subsequent regression analysis was done with the corresponding software tool contained in Microsoft Excel software package (Microsoft, Seattle, WA). For the long-term treatments, HFF grown in T25 culture flasks were infected with 5 × 10^5 TgMe49 tachyzoites, and after 4.5 h 0.5 μM DCQ, RMB054 or RMB060 were added. Infected cultures treated with the highest corresponding concentration of DMSO (0.5%) served as controls. […] Cultures were inspected by light microscopy on a daily basis. On days 3, 6, 9, 13, 16, 20 and 24, the compound-containing medium was removed, and parasites were maintained without drug pressure until host cell lysis (plaque formation) was evident.

[3] = test system: T. gondii Me49 tachyzoites; test: TEM of T. gondii Me49 tachyzoites cultured in HFF under drug treatment; format: cell-based, Toxoplasma gondii
Protocol: For transmission electron microscopy (TEM), HFF grown in T25 culture flasks were infected with 10^7 TgMe49 tachyzoites and incubated for 3 h at 37 °C and 5% CO2. Subsequently, cultures were exposed to continuous treatment of 6h, 24 h, 48 h, and 72 h with 0.5 μM DCQ, RMB054 or RMB060, and 1 µM RMB055. Infected cultures treated with DMSO served as controls. TEM preparations were performed as described earlier. Samples were observed on a Philips CM 12 (Philips Research, Eindhoven, Holland) or a FEI Tecnai Spirit BioTwin TEM (TESCAN GmbH, Dormund, Germany), both operating at 80 kV.

[4] = Pregnancy interference test in non-infected BALB/c mice; format: in vivo; settings: for No. of Non-Pregnant Mice/No. of Mice / No. of Pregnant Mice/No. of Mice: non-infected BALB/c; for Litter Size: total pups per group
Protocol: Eighteen female and 9 male BALB/c mice, all 8 weeks of age, were used. The females were oestrus-synchronized for 3 days by the Whitten effect and were mated by housing 2 females and 1 male for 72 h in one cage. Males were removed after mating and females were randomly assigned to 3 experimental groups of 6 mice each: DCQ; RMB060; placebo. On days 9–13 post-mating, DCQ and RMB060 were supplied at 10 mg/kg/day in 100 μL corn oil by oral gavage. The placebo group only received corn oil. Mice were observed and weighed on several days and on day 18, post-mating pregnant females were separated into single cages. […] Dams and pups were observed daily and data on fertility, litter size, neonatal and postnatal mortality was recorded for the following 2 weeks. All mice were euthanized in a chamber by isoflurane/CO2 inhalation.

T. gondii = settings: cited from earlier work
T. gondii oocysts = test system: T. gondii oocysts; set-up: method as in PMID 8735260; settings: treatment commencing 10 days prior to infection with T. gondii oocysts; cited from earlier work
[5] = test system: T. gondii β-gal tachyzoites; test: IC50 determination with T. gondii β-gal tachyzoites grown in HFF monolayers; format: cell-based, Toxoplasma gondii; settings: for IC50: Toxoplasma gondii
Protocol: The efficacy of DCQ in vitro was determined using T. gondii β-gal constitutively expressing β-galactosidase grown in HFF monolayers. […] The low IC50 values and the low degree of cytotoxicity against HFF host cells in vitro encouraged us to examine the efficacy of oral treatment of CD1 mice infected with T. gondii oocysts with DCQ at 10 mg/kg/day for 5 days.
Due to the negative effects of treatment with DCQ, we investigated the efficacy in vitro of the three DCQ derivatives RMB054, RMB055 and RMB060 (Figure 1) in comparison to DCQ. Different concentrations of DCQ and the derivatives in DMSO were added to HFF either concomitantly with infection of T. gondii-β-gal tachyzoites, or 3 h after infection. […] The corresponding dose-response curves are shown in Supplementary Materials Figure S1. The viability of uninfected HFF was not impaired by the compounds up to concentrations of 5 µM (DCQ and RMB054) or 10 µM (RMB055, RMB060) (Table 1).
(§1) HFF cytotoxicity assessments and IC50 determinations using cultures of Tg-β-gal tachyzoites grown in HFF were carried out as described previously. IC50 values were calculated with the logit-log-transformation of the relative growth and subsequent regression analysis was done with the corresponding software tool contained in Microsoft Excel software package (Microsoft, Seattle, WA). For the long-term treatments, HFF grown in T25 culture flasks were infected with 5 × 10^5 TgMe49 tachyzoites, and after 4.5 h 0.5 μM DCQ, RMB054 or RMB060 were added. Infected cultures treated with the highest corresponding concentration of DMSO (0.5%) served as controls. Prolonged treatments for up to 24 days were carried out, with the addition of fresh medium containing the respective drug every 3–4 days. Cultures were inspected by light microscopy on a daily basis. On days 3, 6, 9, 13, 16, 20 and 24, the compound-containing medium was removed, and parasites were maintained without drug pressure until host cell lysis (plaque formation) was evident.

[6] = test system: human foreskin fibroblasts (HFF); test: HFF cytotoxicity assessment; format: cell-based; settings: for IC50: Homo sapiens, Fibroblast, uninfected HFF, no decline in viability over the concentration range
Protocol: as §1

[7] = test system: liver stage of Plasmodium berghei malaria parasites; set-up: method as in doi:10.1038/s42004-018-0062-7; settings: cited from earlier work
[8] = 10 mg/kg/day oral, days 9–13 post-mating
[9] = HFF vs T. gondii, compound applied prior to / concomitantly with infection
[10] = Tg-β-gal in HFF, compound added 3 h post-infection, [upper, lower limit of 95% CI], read-out: IC50 T. gondii (nM) [LS, LI] Compound Added 3 h Post-infection
[11] = Tg-β-gal in HFF, compound added prior to / concomitantly with infection, [upper, lower limit of 95% CI], read-out: IC50 T. gondii (nM) [LS, LI] Compound Added Prior to Infection
[12] = short-term growth assays, added with infection or 3 h after, read-out: IC50 T. gondii, range depending on the time point of initiation of treatment

CCCCCCCCCCOc1cc2c(O)c(C(=O)OCC)cnc2cc1OCC [DCQ, ethyl 6-decyloxy-7-ethoxy-4-oxo-1H-quinoline-3-carboxylate]
Expression of the bradyzoite marker BAG1 [1]: induced the expression of BAG1 | Parasiticidal effect after long-term treatment ([2]; 500 nM, 52 days): no parasiticidal effect | Parasiticidal effect in long-term treatment assays ([2]; up to 500 nM per day for 24 days): not parasiticidal | Ultrastructural alterations of the parasite mitochondrion (TEM) ([3]; within 24 h): distinct alterations in the parasite mitochondrion | Interference in pregnancy [4, 8]: strong interference in pregnancy outcome | Neonatal Mortality ([4]; female, BALB/c, mouse, in vivo, po, 10 mg/kg/day): 0/7 | No. of Non-Pregnant Mice/No. of Mice [4, 8]: 4/6 | No. of Pregnant Mice/No. of Mice [4, 8]: 2/6 | Litter Size [4, 8]: 7 | Effect of treatment of infected cultures, T. gondii RH strain (T. gondii; 240 nM): tissue cyst formation | IC50 (T. gondii; read-out: IC50, inhibition of T. gondii proliferation in vitro): 12 nM | Outcome of prophylactic treatment in ewes (T. gondii oocysts): decreased pathological changes in the placental tissue | Selectivity Index [5, 9]: >4545 | IC50 [5, 10]: 4.7 nM | IC50 [5, 11]: 1.1 nM | IC50 [5, 12]: 1.1 to 4.7 nM | Concentration up to which viability of uninfected HFF was not impaired [6]: 5 µM | IC50 [6]: > 5000 nM

CCCCCCCCCCOc1cc2c(OC(=O)N3CCN(S(C)(=O)=O)C3=O)c(C(=O)OCC)cnc2cc1OCC [RMB060]
Expression of the bradyzoite marker BAG1 [1]: expression of the bradyzoite marker BAG1 in the cytoplasm of some, but not all, parasites | Killing of tachyzoites after long-term exposure ([2]; 300 nM for 52 days): did not result in the complete killing of all tachyzoites | Concentration to which tachyzoites adapted, fold the IC50 ([2]; exposure for longer timespans, parasites resumed proliferation and formed lysis plaques): up to 4286 fold | Ultrastructural alterations of the parasite mitochondrion (TEM) ([3]; 500 nM for 6 h, treatment started 3 h after infection): mitochondrial matrix had a less electron dense appearance and dissolved cristae became evident | Interference in pregnancy [4, 8]: only minor interference in pregnancy | Postnatal Mortality [4, 8]: 0/24 | Neonatal Mortality ([4]; first 2 days post-partum, 10 mg/kg/day oral, days 9–13 post-mating): 3/27 | No. of Non-Pregnant Mice/No. of Mice [4, 8]: 2/6 | No. of Pregnant Mice/No. of Mice [4, 8]: 4/6 | Litter Size [4, 8]: 27 | IC50 (T. gondii; read-out: previously reported IC50 against T. gondii): 1.1 nM | Activity against the liver stage of Plasmodium berghei [7]: highly active | Selectivity Index [5, 9]: >142,857 | Concentration that caused a complete growth inhibition in dose response assays ([5]; T. gondii tachyzoites in HFF): 500 nM | IC50 [5, 10]: 0.7 nM | IC50 [5, 11]: 0.07 nM | IC50 [5, 12]: 0.07 to 0.7 nM | Selectivity Index ([5]; compound added to intracellular parasites at 3 h post-infection): > 14,000 | Concentration up to which viability of uninfected HFF was not impaired [6]: 10 µM | IC50 [6]: > 10000 nM
